# Results: ChEMBL document CHEMBL5113542, “Highly Potent and Oral Macrocyclic Peptides as a HIV-1 Protease Inhibitor: mRNA Display-Derived Hit-to-Lead Optimization” (ACS Med Chem Lett, 2022)
# pEC50, pIC50: −log10 of the molar value. Starred links: 1 amine or outer side, 2 acyl side, 3 side chain; linkers in the order of their positions; H or OH if unused. Positions of bridges follow the written chain, without caps; N, C: chain ends. Non-standard residues stand in square brackets, D forms with d. Residues, ends and D or L forms follow the SMILES beside them. X3 = O=C([C@H](CCC1=CCC(F)(F)CC1)N[*:1])[*:2]; Trp(1-Me) = Cn1cc(C[C@H](N)C(=O)O)c2ccccc21; 1Nal = N[C@@H](Cc1cccc2ccccc12)C(=O)O; NHCH2CH2SCH2CO = O=C(CSCCN[*:1])[*:2]; NMeF = CN[C@@H](Cc1ccccc1)C(=O)O; hCha = N[C@@H](CCC1CCCCC1)C(=O)O; hPhe = N[C@@H](CCc1ccccc1)C(=O)O; X1 = CC(C)(CN[*:1])SCC(=O)[*:2]; X2 = CC(C)(SCCN[*:1])C(=O)[*:2]; Pen = CC(C)(S)[C@H](N)C(=O)O; αMeV = CC(C)[C@](C)(N)C(=O)O; αMeP = C[C@@]1(C(=O)O)CCCN1
# How the values were obtained:
# [1] = Metabolic stability in human liver microsomes incubated for 30 mins in the presence of NADPH by LC-MS/MS analysis; format: ADME, Microsome; conditions: read-out: Stability
# [2] = molecular target: Human immunodeficiency virus type 1 protease (Human immunodeficiency virus 1, UniProt Q72874); test: Inhibition of HIV-1 protease using EDANS-RESGIFLETSKR-DABCYL as substrate preincubated for 15 mins followed by substrate addition and measured after 60 mins by fluorescence based assay
# [3] = Volume of distribution at steady state in Sprague-Dawley rat at 2 umol/kg, po or 1 umol/kg, iv administered as single dose by LC-MS/MS analysis; format: ADME, organism-based; conditions: in vivo, dose 1 µmol/kg
# [4] = Half-life in Sprague-Dawley rat at 2 umol/kg, po or 1 umol/kg, iv administered as single dose by LC-MS/MS analysis; format: ADME, organism-based; conditions: in vivo, dose 2 µmol/kg
# [5] = Unbound fraction in rat serum measured after 24 hrs by equilibrium dialysis based LC-MS/MS analysis; format: ADME, cell-free
# [6] = test system: Human immunodeficiency virus 1; test: Anti-HIV activity against HIV-1 3B strain infected in human MT4 cells assessed as inhibition of virus-induced cell death preincubated with compound for 1 hrs followed by viral infection and measured after 4 days by MTT assay; format: functional, organism-based; conditions: Human immunodeficiency virus 1, 3B
# [7] = Metabolic stability in rat liver microsomes incubated for 30 mins in the presence of NADPH by LC-MS/MS analysis; format: ADME, Microsome; conditions: read-out: Stability
# [8] = Oral bioavailability in Sprague-Dawley rat at 2 umol/kg administered as single dose by LC-MS/MS analysis; format: ADME, organism-based; conditions: in vivo, at 2 µmol/kg
# [9] = Metabolic stability in human liver S9 fraction incubated for 60 mins by LC-MS/MS analysis; format: ADME, subcellular; conditions: read-out: Stability
# [10] = Solubility of the compound at pH 6.8 incubated for 1 hrs in the presence of taurocholic acid by UHPLC/MS analysis; format: physicochemical; conditions: medium containing taurocholic acid
Structure (SMILES),remaining at 0.5 h [1],pIC50 [2],Vdss [3],half-life [4],fraction unbound at 24 h [5],pEC50 [6],remaining at 0.5 h [7],bioavailability [8],remaining at 1 h [9],solubility at 1 h [10]
CC(C)C[C@@H]1NC(=O)[C@H](C(C)C)NC(=O)[C@]2(C)CCCN2C(=O)[C@H](C(C)C)NC(=O)[C@H](Cc2ccccc2)NC(=O)CSCCNC(=O)[C@H](C)NC(=O)[C@H](Cc2ccccc2)N(C)C(=O)[C@H](CC(C)C)NC(=O)[C@H](CCC2CCCCC2)NC1=O (cyclo(A[NHCH2CH2SCH2CO]FV[αMeP]VL[hCha]L[NMeF])),8%,9.55,0.8 L/kg,1.6 h,0.001,7.62,53%,,,
CC(C)C[C@@H]1NC(=O)[C@H](C(C)C)NC(=O)[C@]2(C)CCCN2C(=O)[C@H](C(C)C)NC(=O)[C@H](Cc2ccccc2)NC(=O)CSC(C)(C)CNC(=O)[C@H](C)NC(=O)[C@H](Cc2ccccc2)N(C)C(=O)[C@H](CC(C)C)NC(=O)[C@H](CCC2CCCCC2)NC1=O (cyclo(A[X1]FV[αMeP]VL[hCha]L[NMeF])),20%,9.21,0.7 L/kg,2 h,0.001,7.96,60%,0.2%,,
CC(C)C[C@@H]1NC(=O)[C@H](C(C)C)NC(=O)[C@]2(C)CCCN2C(=O)[C@H](C(C)C)NC(=O)[C@H](Cc2ccccc2)NC(=O)C(C)(C)SCCNC(=O)[C@H](C)NC(=O)[C@H](Cc2ccccc2)N(C)C(=O)[C@H](CC(C)C)NC(=O)[C@H](CCC2CCCCC2)NC1=O (cyclo(A[X2]FV[αMeP]VL[hCha]L[NMeF])),28%,7.82,,,,6.82,46%,,,
CC(C)C[C@@H]1NC(=O)[C@H](C(C)C)NC(=O)[C@@H]2CCCN2C(=O)[C@H](C(C)C)NC(=O)[C@H](Cc2ccccc2)NC(=O)CSCCNC(=O)CNC(=O)[C@H](Cc2ccccc2)N(C)C(=O)[C@H](CC(C)C)NC(=O)[C@H](Cc2c[nH]c3ccccc23)NC1=O (cyclo(FVPVLWL[NMeF]G[NHCH2CH2SCH2CO])),3%,9.00,0.1 L/kg,0.7 h,0.011,6.02,29%,,23%,26 µM
CC(C)C[C@@H]1NC(=O)[C@H](C(C)C)NC(=O)[C@@H]2CCCN2C(=O)[C@H](C(C)C)NC(=O)[C@H](Cc2ccccc2)NC(=O)CSCCNC(=O)[C@H](Cc2ccccc2)N(C)C(=O)[C@H](CC(C)C)NC(=O)[C@H](Cc2c[nH]c3ccccc23)NC1=O (cyclo(FVPVLWL[NMeF][NHCH2CH2SCH2CO])),,8.09,,,,6.21,,,,
CC(C)C[C@@H]1NC(=O)[C@H](C(C)C)NC(=O)[C@@H]2CCCN2C(=O)[C@H](C(C)C)NC(=O)[C@H](Cc2ccccc2)NC(=O)CSCCNC(=O)[C@H](Cc2ccccc2)N(C)C(=O)[C@H](CC(C)C)NC(=O)[C@H](Cc2cn(C)c3ccccc23)NC1=O (cyclo(FVPVL[Trp(1-Me)]L[NMeF][NHCH2CH2SCH2CO])),,8.10,,,,5.82,,,,
CC(C)C[C@@H]1NC(=O)[C@H](C(C)C)NC(=O)[C@]2(C)CCCN2C(=O)[C@H](C(C)C)NC(=O)[C@H](Cc2ccccc2)NC(=O)CSCCNC(=O)[C@H](Cc2ccccc2)N(C)C(=O)[C@H](CC(C)C)NC(=O)[C@H](CCC2=CCC(F)(F)CC2)NC1=O (cyclo(FV[αMeP]VL[X3]L[NMeF][NHCH2CH2SCH2CO])),,9.68,,,,8.00,,,,
CC(C)C[C@@H]1NC(=O)[C@H](C(C)C)NC(=O)[C@]2(C)CCCN2C(=O)[C@H](C(C)C)NC(=O)[C@H](Cc2ccccc2)NC(=O)CSCCNC(=O)[C@H](Cc2ccccc2)NC(=O)[C@H](Cc2ccccc2)N(C)C(=O)[C@H](CC(C)C)NC(=O)[C@H](CCC2CCCCC2)NC1=O (cyclo(FV[αMeP]VL[hCha]L[NMeF]F[NHCH2CH2SCH2CO])),,8.63,,,,7.25,,,,
CC(C)C[C@@H]1NC(=O)[C@H](C(C)C)NC(=O)[C@]2(C)CCCN2C(=O)[C@H](C(C)C)NC(=O)[C@H](Cc2ccccc2)NC(=O)CSCCNC(=O)CNC(=O)[C@H](Cc2ccccc2)N(C)C(=O)[C@H](CC(C)C)NC(=O)[C@H](CCC2CCCCC2)NC1=O (cyclo(FV[αMeP]VL[hCha]L[NMeF]G[NHCH2CH2SCH2CO])),,9.43,,,,7.54,,,85%,
CC(C)C[C@@H]1NC(=O)[C@H](C(C)C)NC(=O)[C@]2(C)CCCN2C(=O)[C@H](C(C)C)NC(=O)[C@H](Cc2ccccc2)NC(=O)CSCCNC(=O)[C@H](CC(C)C)NC(=O)[C@H](Cc2ccccc2)N(C)C(=O)[C@H](CC(C)C)NC(=O)[C@H](CCC2CCCCC2)NC1=O (cyclo(FV[αMeP]VL[hCha]L[NMeF]L[NHCH2CH2SCH2CO])),,8.64,,,,7.21,,,,
CC(C)C[C@@H]1NC(=O)[C@H](C(C)C)NC(=O)[C@]2(C)CCCN2C(=O)[C@H](C(C)C)NC(=O)[C@H](Cc2ccccc2)NC(=O)CSCCNC(=O)[C@H](Cc2ccccc2)N(C)C(=O)[C@H](CC(C)C)NC(=O)[C@H](CCC2CCCCC2)NC1=O (cyclo(FV[αMeP]VL[hCha]L[NMeF][NHCH2CH2SCH2CO])),,9.54,,,,7.92,,,,
CC(C)C[C@@H]1NC(=O)[C@H](C(C)C)NC(=O)[C@]2(C)CCCN2C(=O)[C@H](C(C)C)NC(=O)[C@H](Cc2ccccc2)NC(=O)CSCCNC(=O)[C@H](Cc2ccccc2)N(C)C(=O)[C@H](CC(C)C)NC(=O)[C@H](CCc2ccccc2)NC1=O (cyclo(FV[αMeP]VL[hPhe]L[NMeF][NHCH2CH2SCH2CO])),,9.35,,,,7.55,,,,
CC(C)C[C@@H]1NC(=O)[C@H](C(C)C)NC(=O)[C@@H]2CCCN2C(=O)[C@H](C(C)C)NC(=O)[C@H](Cc2ccccc2)NC(=O)CSCCNC(=O)[C@H](Cc2ccccc2)N(C)C(=O)[C@H](CC(C)C)NC(=O)[C@H](Cc2cccc3ccccc23)NC1=O (cyclo([1Nal]L[NMeF][NHCH2CH2SCH2CO]FVPVL)),,9.17,,,,6.49,,,46%,
CC(C)C[C@@H]1NC(=O)[C@](C)(C(C)C)NC(=O)[C@@H]2CCCN2C(=O)[C@H](C(C)C)NC(=O)[C@H](Cc2ccccc2)NC(=O)CSCCNC(=O)[C@H](Cc2ccccc2)N(C)C(=O)[C@H](CC(C)C)NC(=O)[C@H](Cc2cccc3ccccc23)NC1=O (cyclo([1Nal]L[NMeF][NHCH2CH2SCH2CO]FVP[αMeV]L)),,9.36,,,,6.92,,,69%,
CC(C)C[C@@H]1NC(=O)[C@H](C(C)C)NC(=O)[C@]2(C)CCCN2C(=O)[C@H](C(C)C)NC(=O)[C@H](Cc2ccccc2)NC(=O)CSCCNC(=O)[C@H](Cc2ccccc2)N(C)C(=O)[C@H](CC(C)C)NC(=O)[C@H](Cc2cccc3ccccc23)NC1=O (cyclo([1Nal]L[NMeF][NHCH2CH2SCH2CO]FV[αMeP]VL)),,9.11,,,,7.52,,,86%,
COC(=O)[C@H]1NC(=O)[C@H](C)NC(=O)[C@H](Cc2ccccc2)N(C)C(=O)[C@H](CC(C)C)NC(=O)[C@H](CCC2CCCCC2)NC(=O)[C@H](CC(C)C)NC(=O)[C@H](C(C)C)NC(=O)[C@]2(C)CCCN2C(=O)[C@H](C(C)C)NC(=O)[C@H](Cc2ccccc2)NC(=O)CSC1(C)C ({CH2CO}-FV[αMeP]VL[hCha]L[NMeF]A[Pen]-OMe; thioether N-10),23%,8.45,1.9 L/kg,3.9 h,0.001,7.43,63%,3.3%,,10 µM
